Patent US20250304537A1 (Repare Therapeutics Inc., priority 2022, published 2025)
Read-outs that look alike come from different tables or passages of the source.

Key:
[1] = target: recombinant human Myt1 (full length PKMYT1) (Homo sapiens (Human), UniProt Q99640); test: Recombinant human Myt1 kinase assay (ADP-Glo); type: biochemical; details: 10 μM ATP
Experimental: Detection of Myt1 kinase activity utilized a recombinant human Myt1 kinase assay measuring the hydrolysis of ATP using a commercially available ADP-Glo Assay (ADP-Glo™ Kinase Assay from Promega, 10 000 assays, #V9102). Briefly, 5 μL recombinant human Myt1 (full length PKMYT1 recombinant human protein expressed in insect cells from Thermo Fisher #A33387; ˜80% purity) was prepared in reaction buffer (70 mM HEPES, 3 mM MgCl2, 3 mM MnCl2, 50 μg/ml PEG 20000, 3 μM Na-orthovanadate, 1.2 mM DTT) and added to 384 well white polystyrene, flat bottom well, non-treated, microplate (Corning #3572). After this, 5 μL of compounds (diluted in reaction buffer to 0.5% DMSO) was added to the microplate and the plate was spun briefly and incubated at 22° C. for 15 minutes. Ultra-Pure Adenosine Triphosphate (ATP) solution (ADP-Glo kit from Promega) was diluted in reaction buffer and 5 μL was added to the microplate, spun down briefly and incubated for 60 minutes at 30° C. The final Myt1 enzyme concentration was 18 nM and the final ATP concentration was 10 μM. After the 60-minute incubation, 15 μL of ADP-Glo reagent was added and the plate was spun briefly and sealed and incubated in the dark for 40 minutes at 22° C. Following this, 30 μL of kinase detection reagent was added per well and the plate was spun briefly, sealed and incubated for 45-60 minutes at 22° C. in the dark. Luminescence was read using the Envision (250 ms integration). The IC50 and the % max inhibition were calculated for each inhibitor compound tested.

[2] = test system: PKMYT1 (CDK1 pThr14) in FUOV1 cells; test: PKMYT1 cell-based activity assay, CDK1 pThr14 AlphaLISA in FUOV1 cells; details: 2 h, read-out: FUOV-1 CDK1 pThr14 IC50
Summary of the method: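 FUOV1 cells were treated with PKMYT1 inhibitor for 2 h at 37 °C, then lysed. CDK1 pThr14 was measured by AlphaLISA, pairing an anti-pThr14 antibody with an anti-total CDK1 antibody (5 nM each). Signal read at 680/615 nm and used to derive IC50.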

recombinant human Myt1 (full length PKMYT1), sequence (Q99640 whole entry): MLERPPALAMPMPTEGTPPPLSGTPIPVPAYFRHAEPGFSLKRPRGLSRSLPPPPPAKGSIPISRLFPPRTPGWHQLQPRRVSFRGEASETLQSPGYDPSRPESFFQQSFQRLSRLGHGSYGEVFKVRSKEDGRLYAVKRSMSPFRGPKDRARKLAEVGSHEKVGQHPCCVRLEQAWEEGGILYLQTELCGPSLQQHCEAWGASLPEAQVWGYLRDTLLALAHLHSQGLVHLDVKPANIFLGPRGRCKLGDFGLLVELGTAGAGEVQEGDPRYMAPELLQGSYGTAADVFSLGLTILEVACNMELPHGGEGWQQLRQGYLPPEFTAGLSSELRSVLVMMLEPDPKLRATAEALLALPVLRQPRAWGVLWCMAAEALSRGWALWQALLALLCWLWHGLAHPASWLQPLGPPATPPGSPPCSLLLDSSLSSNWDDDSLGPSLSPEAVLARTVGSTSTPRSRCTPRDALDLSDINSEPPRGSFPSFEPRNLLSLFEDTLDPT

| SMILES | IC50 [1] [nM] | IC50 ([2]; 2 h compound incubation) [nM] | further results |
| --- | --- | --- | --- |
| Cc1ccc2[nH]ncc2c1-c1nc(-c2cccc(C(F)(F)F)c2)nc(C(N)=O)c1N [Compound 112] | 100 | – | – |
| Cc1ccc2[nH]ncc2c1-c1nc(-c2ccc(C(F)(F)F)cc2)nc(C(N)=O)c1N [Compound 104] | 317 | – | – |
| Cc1ccc2[nH]ncc2c1-c1nc(-c2ccc(N3CCOCC3)cc2)nc(C(N)=O)c1N [Compound 103] | 94 | – | – |
| Cc1ccc2[nH]ncc2c1-c1cc(-c2ccnc(NCC3(O)CC3)n2)nc(C(N)=O)c1N [Compound 341] | 16 | – | – |
| Cc1ccc2[nH]ncc2c1-c1nc(-c2cccc(Cl)c2)nc(C(N)=O)c1N [Compound 111] | 44 | – | – |
| Cc1ccc2[nH]ncc2c1-c1cc(-c2csc(C(C)(C)O)n2)nc(C(N)=O)c1N [Compound 225] | 161 | – | – |
| CCOC(=O)COc1cccc(-c2nc(C(N)=O)c(N)c(-c3c(C)ccc4[nH]ncc34)n2)c1 [Compound 293] | 16 | – | – |
| Cc1ccc2[nH]ncc2c1-c1nc(-c2cccc(C=O)c2)nc(C(N)=O)c1N [Compound 304] | 27 | – | – |
| Cc1ccc2[nH]ncc2c1-c1cc(-c2ccnc(OCCOc3ccccc3)n2)nc(C(N)=O)c1N [Compound 195] | 182 | – | – |
| Cc1ccc(O)cc1-c1nc(-c2ccncc2)nc(C(N)=O)c1N [Compound 24] | 18 | – | – |
| NC(=O)c1nc(-c2cccnc2)cc(-c2c(C(F)F)ccc3[nH]ncc23)c1N [Compound 321, 5-amino-4-(5-(difluoromethyl)-1H-indazol-4-yl)-[2,3′-bipyridine]-6-carboxamide] | > 2000 | – | – |
| Cc1ccc2[nH]ncc2c1-c1cc(-c2cccc(OCc3ncccn3)n2)nc(C(N)=O)c1N (atropisomer, axis not shown) [Compound 234] | 1880 | – | – |
| Cc1ccc2[nH]ncc2c1-c1cc(-c2ccnc(OCC3CCC(=O)N3)n2)nc(C(N)=O)c1N (stereo not drawn) [Compound 317] | 13 | – | – |
| Cc1ccc(O)c(C)c1-c1cc(-c2cc3ccccc3n2C)nc(C(N)=O)c1N [Compound 46] | 62 | – | – |
| Cc1ccc2[nH]ncc2c1-c1cc(-c2ccnc(N[C@H]3c4ccccc4C[C@@H]3O)n2)nc(C(N)=O)c1N (atropisomer, axis not shown) [Compound 372] | > 2000 | – | – |
| Cc1ccccc1-c1nc(C(N)=O)c(N)c(-c2cc(O)ccc2C)n1 [Compound 31] | 341 | – | – |
| Cc1c(-c2ccccn2)nc(C(N)=O)c(N)c1-c1cccc2[nH]ncc12 [Compound 246, 5-amino-4-(1H-indazol-4-yl)-3-methyl-[2,2′-bipyridine]-6-carboxamide] | 720 | – | – |
| Cc1ccc(O)cc1-c1c(N)c(C(N)=O)nc2ccccc12 [Compound 10, 3-amino-4-(5-hydroxy-2-methylphenyl)quinoline-2-carboxamide] | 202 | – | – |
| Cc1ccc2[nH]ncc2c1-c1cc(-c2cccc(OC[C@H]3CCCN3)n2)nc(C(N)=O)c1N (atropisomer, axis not shown) [Compound 387] | 640 | – | – |

| SMILES | IC50 [1] [nM] | IC50 ([2]; 2 h compound incubation) [nM] | further results |
| --- | --- | --- | --- |
| Cc1ccc2[nH]ncc2c1-c1cc(-c2ccnc(OCCc3ncccn3)n2)nc(C(N)=O)c1N (atropisomer, axis not shown) [Compound 330] | 88 | – | – |
| Cc1ccc(O)cc1-c1nc(-c2cccc(C(N)=O)c2)nc(C(N)=O)c1N [Compound 8] | 25 | – | – |
| Cc1ccc2[nH]ncc2c1-c1cc(-c2cnc(C(C)(C)O)s2)nc(C(N)=O)c1N [Compound 218] | 230 | – | – |
| Cc1ccc2[nH]ncc2c1-c1cc(-c2ccnc(OCCN3CCCC3)n2)nc(C(N)=O)c1N (atropisomer, axis not shown) [Compound 233] | 859 | – | – |
| Cc1ccc2[nH]ncc2c1-c1nc(-c2ccccc2)nc(C(N)=O)c1Cl [Compound 75, 5-chloro-6-(5-methyl-1H-indazol-4-yl)-2-phenylpyrimidine-4-carboxamide] | > 2000 | – | – |
| Cc1ccc2[nH]ncc2c1-c1nc(-c2ccc(F)nc2N[C@H]2C[C@@](C)(O)C2)nc(C(N)=O)c1N [Compound 791] | – | 61 | – |
| Cc1ccc2[nH]ncc2c1-c1nc(-c2cccnc2Nc2cncc(F)n2)nc(C(N)=O)c1N [Compound 753] | – | 59 | – |
| Cc1ccc2[nH]ncc2c1-c1nc(-c2ccc(Cl)nc2NC2CCOCC2)nc(C(N)=O)c1N [Compound 803] | – | – | IC50 ([2]; 2 hours with compound): 74 nM |
| Cc1ccnnc1Nc1ncccc1-c1nc(C(N)=O)c(N)c(-c2c(C)ccc3[nH]ncc23)n1 [Compound 563] | – | 38 | – |
| C[C@]1(O)C[C@@H](Nc2nc(Cl)ccc2-c2nc(C(N)=O)c(N)c(-c3c(Cl)ccc4[nH]ncc34)n2)C1 [Compound 790] | – | 271 | – |
| Cc1ccc2[nH]ncc2c1-c1nc(-c2ccc(F)nc2Nc2nccnc2Cl)nc(C(N)=O)c1N [Compound 924] | – | – | IC50 ([2]; 2 hours with compound): 15 nM |
| COc1ccccc1-c1nc(C(N)=O)c(N)c(-c2c(C)ccc3[nH]ncc23)n1 [Compound 777] | – | > 10000 | – |
| Cc1ccc2[nH]ncc2c1-c1cc2c(oc3ccc(OCC(C)(C)C#N)nc32)c(C(N)=O)c1N [Compound 559] | – | 1290 | – |
| Cc1ccc2[nH]ncc2c1-c1nc(-c2cc(F)cnc2N[C@@H]2CCOCC2(F)F)nc(C(N)=O)c1N [Compound 883] | – | – | IC50 ([2]; 2 hours with compound): 36 nM |
| NC(=O)c1nc(-c2ccc(C(F)F)nc2Nc2ncccc2F)nc(-c2c(F)ccc3[nH]ncc23)c1N [Compound 970] | – | – | IC50 ([2]; 2 hours with compound): 40 nM |
| Cc1ccc2[nH]ncc2c1-c1nc(-c2ccc(C#N)cc2N[C@H]2C[C@](C)(O)C2)nc(C(N)=O)c1N [Compound 821] | – | – | IC50 ([2]; 2 hours with compound): 71 nM |
| [2H]C([2H])([2H])c1ccc2[nH]ncc2c1-c1nc(-c2cc(F)cnc2N[C@H]2C[C@@](C)(O)C2)nc(C(N)=O)c1N [Compound 964] | – | – | IC50 ([2]; 2 hours with compound): 68 nM |
| Cc1ccc2[nH]ncc2c1-c1nc(-c2cccnc2N[C@@H]2CC[C@@H](O)C2)nc(C(N)=O)c1N [Compound 786] | – | 9 | – |
| [2H]C([2H])([2H])c1ccc2[nH]ncc2c1-c1nc(-c2cc(F)ccc2Nc2ncc(F)cn2)nc(C(N)=O)c1N [Compound 684] | – | 122 | – |

| SMILES | IC50 [1] [nM] | IC50 ([2]; 2 h compound incubation) [nM] | further results |
| --- | --- | --- | --- |
| NC(=O)c1nc(-c2cccnc2NCC(F)(F)F)nc(-c2c(Cl)ccc3[nH]ncc23)c1N [Compound 912] | – | – | IC50 ([2]; 2 hours with compound): 178 nM |
| Cc1ccc2[nH]ncc2c1-c1nc(-c2cc(F)ccc2NS(=O)(=O)C2CCC2)nc(C(N)=O)c1N [Compound 571] | – | 283 | – |
| Cc1cc(F)c2[nH]ncc2c1-c1nc(-c2cc(F)cnc2N[C@H]2CCOC[C@H]2F)nc(C(N)=O)c1N [Compound 887] | – | – | IC50 ([2]; 2 hours with compound): 104 nM |
| COc1ccc(-c2nc(C(N)=O)c(N)c(-c3c(C)ccc4[nH]ncc34)n2)c(Nc2ncccc2C)n1 [Compound 709] | – | 18 | – |
| Cc1ccc2[nH]ncc2c1-c1nc(-c2cc(F)ccc2Nc2ccnn2C)nc(C(N)=O)c1N [Compound 522] | – | 101 | – |
| Cc1ccc(C#N)nc1Nc1ncccc1-c1nc(C(N)=O)c(N)c(-c2c(C)ccc3[nH]ncc23)n1 [Compound 740] | – | 7 | – |
| Cc1ccc2[nH]ncc2c1-c1nc(-c2ccc(C#N)nc2NC2CCOCC2)nc(C(N)=O)c1N [Compound 810] | – | – | IC50 ([2]; 2 hours with compound): 96 nM |
| Cc1ccc2[nH]ncc2c1-c1nc(-c2cc(F)cnc2NC2CC(O)C2(C)C)nc(C(N)=O)c1N (stereo not drawn) [Compound 823] | – | – | IC50 ([2]; 2 hours with compound): 36 nM |
| N#Cc1ccc(-c2nc(C(N)=O)c(N)c(-c3c(Cl)ccc4[nH]ncc34)n2)c(Nc2ncccn2)c1 [Compound 958] | – | – | IC50 ([2]; 2 hours with compound): 32 nM |
| Cc1ccc2[nH]ncc2c1-c1nc(-c2ccc(F)cc2Nc2ncncc2C#N)nc(C(N)=O)c1N [Compound 655] | – | 4 | – |
| Cc1ccc2[nH]ncc2c1-c1nc(-c2cccnc2NCC(F)(F)F)nc(C(N)=O)c1N [Compound 518, 5-amino-6-(5-methyl-1H-indazol-4-yl)-2-(2-((2,2,2-trifluoroethyl)amino)pyridin-3-yl)pyrimidine-4-carboxamide] | – | 18 | – |
| COc1cccc(Nc2ncccc2-c2nc(C(N)=O)c(N)c(-c3c(C)ccc4[nH]ncc34)n2)c1 [Compound 656] | – | 527 | – |
| Cc1ccc2[nH]ncc2c1-c1nc(-c2cccnc2NC2CCCC2)nc(C(N)=O)c1N [Compound 681] | – | 11 | – |
| COC(COc1nccc(-c2cc(-c3c(C)ccc4[nH]ncc34)c(N)c(C(N)=O)n2)n1)c1ccccc1 (stereo not drawn) [Compound 238] | – | – | IC50 ([2]; 2 h incubation): 92 nM |
| Cc1ccc2[nH]ncc2c1-c1nc(-c2cccnc2NCC(C)(C)O)nc(C(N)=O)c1N [Compound 682] | – | 83 | – |
| Cc1ccc(F)c(Nc2ncccc2-c2nc(C(N)=O)c(N)c(-c3c(C)c(F)cc4[nH]ncc34)n2)n1 [Compound 749] | – | 6 | – |
| [2H]C([2H])([2H])c1ccc(-c2nc(C(N)=O)c(N)c(-c3c(C([2H])([2H])[2H])ccc4[nH]ncc34)n2)c(Nc2ncccn2)n1 [Compound 960] | – | – | IC50 ([2]; 2 hours with compound): 40 nM |
| Cc1ccc2[nH]ncc2c1-c1nc(-c2cccnc2Nc2ncccn2)nc(C(N)=O)c1N [Compound 726] | – | 120 | – |
| Cc1ccc2[nH]ncc2c1-c1nc(-c2cccnc2Nc2nccnc2C)nc(C(N)=O)c1N [Compound 728] | – | 56 | – |
